According to patent publication US5122448A, “Assay of anti-Epstein-Barr virus nuclear antigen antibodies with synthetic polypeptides” (Scripps Clinic and Research Foundation, priority 1990, dated 1992):
Residues, ends and D or L forms follow the SMILES beside them.

How the values were obtained:
[1] = test system: IgM and IgG antibodies to EBNA-1 and cellular proteins of Wi-L2 cells
Method: In an alternative procedure, the cellular protein-containing extracts were loaded onto one 13-cm-wide slot of a 7.5 percent acrylamide gel and electrophoresed. The contents of the electrophoresed gel were transferred to nitrocellulose as previously described [Billings et al., Proc. Natl. Acad. Sci. USA, 80:7104-7108 (1983); Rumpold et al., J. Immunol., 138:593-599 (1987); Rhodes et al., J. Exp. Med., 165:1026-1040 (1987)]. Sera were diluted 1:20 or 1:50 in a powdered milk (PM) buffer (3 percent powered milk in 0.05 M borate, 0.15 M NaCl, pH 8.3), and contacted with the strip for 1 hour at room temperature to immunoreact antibodies in the sera with the proteins.
128:593-599 (1987); Rhodes et al., in Herpesvirus, R. Rapp ed., Alan R. Liss, New York; p. […] 154:885-889 (1986); Geltosky et al., J. Clin. Lab Analysis, 1:153-162 (1987); and Rhodes et al., J. Exp. Med., 165:1026-1040 (1987)] and bands were detected by autoradiography as described before.
Synthetic peptide inhibitions were performed by diluting the sera 1:50 in PM and adding free peptide to a final concentration of 400 ug/ml to inhibit IgM antibody and 20 to 50 ug/ml to inhibit IgG antibody. This solution was maintained (incubated) overnight at 4 degrees C. and then used to blot as described above.

[2] = Circular dichroism spectroscopy; assay type: physicochemical; conditions: 1 mg/ml in phosphate buffered saline
Method: The conformational properties of the polypeptides were investigated to elucidate any secondary structure that might be necessary for polypeptide immunoreaction with human anti-EBNA antibodies. The polypeptides were dissolved at a concentration of 1 mg/ml in phosphate-buffered saline (PBS). Spectra were taken using 1 ml samples in a Cary 61 spectropolarimeter (Cary Instruments, Applied Physics Corp., Monrovia, Calif.) interfaced and automated with a Digital Equipment Corporation 11/02 computer (Digital Equipment Corporation, Maynard, Mass.).

EBNA = test: Immunoblot of WI-L2 whole cell extracts with rabbit antipeptide antisera, blocking by polypeptide; assay type: binding, Epstein-Barr virus; conditions: serum 1:10, 40 ug/ml polypeptide P62, one hour
Method: Exemplary receptor molecules containing antibody combining sites of this invention raised in rabbits to the polypeptides shown in Table 1 were studied using the immunoblotting procedures of Towbin, et. al., Proc. Natl. Acad. Sci., U.S.A., 76:4350-4354 (1979) and Billings, et. al., Proc. Natl. Acad. Sci., U.S.A., 80:7104-7108 (1983). Further details are provided in the Materials and Methods section (III).
Extracts of EBNA producing and non-producing (control) cells were prepared to determine if receptor molecules of this invention were useful for diagnosing EBNA expression. Cells from cultures described hereinabove were washed in phosphate-buffered saline (PBS; 150 mM NaCl, 10 mM sodium phosphate, pH 7.4) containing 0.2 mM phenylmethylsulfonyl fluoride, swollen for 5 minutes in reticulocyte standard buffer (RSB; 10 mM NaCl, 10 mM Tris-HCl, pH 7.4, 1.5 mM MgCl2, 0.2 mM phenylmethylsulfonyl fluoride), and lysed by sonication in 3-5 volumes of RBS adjusted to 0.2-0.35 molar (M) NaCl. After 30 minutes on ice, the sonicate was centrifuged at 10,000×g for 15 minutes to remove cellular debris.
Cell extracts obtained above were assayed for EBNA using human sera known to contain anti-EBNA antibodies or exemplary receptor molecules of this invention. The extracts were either concentrated by precipitation with 2 volumes of ethanol at -20 degrees C. for about 18 hours, and were then dissolved in sample buffer [SB; 10% glycerol, 2% 2-mercaptoethanol, 1% sodium dodecyl sulfate (SDS), 0.002% bromphenol blue, 40 mM Tris-HCl (pH 7.4)] or diluted 1:6 in sample buffer for SDS-polyacrylamide gel electrophoresis (SDS-PAGE). 7.5% Polyacrylamide gels were cast and run according to the procedure of Laemmli, Nature, […] (1970), applying 50 to 200 micrograms of total protein per lane. […]
Anti-peptide antibodies bound to EBNA protein were detected by reacting the blots with an indicating means. […]

C[C@H](N)C(=O)NCC(=O)N[C@@H](C)C(=O)NCC(=O)NCC(=O)NCC(=O)N[C@@H](C)C(=O)NCC(=O)NCC(=O)N[C@@H](C)C(=O)NCC(=O)N[C@@H](C)C(=O)NCC(=O)NCC(=O)NCC(=O)N[C@@H](C)C(=O)NCC(=O)NCC(=O)N[C@@H](C)C(=O)NCC(=O)O [Polypeptide P62, H--Ala--Gly--Ala--Gly--Gly--Gly--Ala--Gly--Gly--Ala--Gly--Ala--Gly--Gly--Gly--Ala--Gly--Gly--Ala--Gly--OH] (H-AGAGGGAGGAGAGGGAGGAG-OH)
Inhibition of IgM antibody binding to protein bands ([1]; acute EBV-IM sera 1:50, 400 ug/ml peptide): inhibited IgM antibody binding to several protein bands | Inhibition of IgG binding to EBNA-1 band at 77 kD ([1]; convalescent and normal sera, 50 ug/ml peptide): inhibited by the peptide in all cases | Inhibition of IgM reactivities with 82-77 kD and 58 to 62 kD bands ([1]; patient four. 12 days after onset of CMV illness, 400 ug/ml peptide): inhibited | Conformation by circular dichroism spectrum [2]: relatively stable secondary structure | Recognition of EBNA by anti-P62 serum after preincubation with polypeptide (EBNA): inhibited
